Assays:
HuO-3N1 (Osteosarcoma) = experiment: Bliss excess, mean over the matrix (fraction); higher = more synergy
Outline: (§1)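 Cell lines in DMEM/F12 or RPMI with 10% FBS were plated in 1536-well plates, held 24 hours at 37°C, 5% CO2, then given two-drug dose matrices for 72 hours (DMSO typically 0.2%). Viability was read by CellTiter-Glo 2.0 luminescence and scaled as inhibition from 0 (vehicle wells) to 1 (blank wells). Combination Emax is the second-highest inhibition in the matrix; Bliss excess is observed combination effect minus expected EA + EB − EA·EB, EA and EB being single-agent effects.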

[1] = test system: NKM-1 (Acute Myeloid Leukemia); experiment: as above
Outline: as §1

786-0 (Kidney Carcinoma) = experiment: combination Emax (second highest fraction inhibited in the dose matrix, 72 h); higher = more inhibition; extreme values may be limits of the assay
Outline: as §1

[2] = test system: BALL-1 (B-Lymphoblastic Leukemia); experiment: as above
Outline: as §1

CHL-1 (Melanoma) = experiment: as above
Outline: as §1

[3] = test system: COLO-684 (Endometrial Carcinoma); experiment: as above
Outline: as §1

[4] = test system: Caov-3 (Ovarian Carcinoma); experiment: as above
Outline: as §1

[5] = test system: EB-3 (Burkitt's Lymphoma); experiment: as above
Outline: as §1

[6] = test system: FLO-1 (Esophageal Adenocarcinoma); experiment: as above
Outline: as §1

[7] = test system: HTC-C3 (Thyroid Gland Carcinoma); experiment: as above
Outline: as §1

[8] = test system: LOUCY (T-Lymphoblastic Leukemia); experiment: as above
Outline: as §1

[9] = test system: NCI-H1563 (Lung Adenocarcinoma); experiment: as above
Outline: as §1

[10] = test system: NCI-H1623 (Lung Adenocarcinoma); experiment: as above
Outline: as §1

[11] = test system: NCI-H1755 (Lung Adenocarcinoma); experiment: as above
Outline: as §1

[12] = test system: NKM-1 (Acute Myeloid Leukemia); experiment: as above
Outline: as §1

[13] = test system: OCI-AML5 (Acute Myeloid Leukemia); experiment: as above
Outline: as §1

[14] = test system: OVTOKO (Ovarian Carcinoma); experiment: as above
Outline: as §1

[15] = test system: RL95-2 (Endometrial Carcinoma); experiment: as above
Outline: as §1

[16] = test system: RPMI-8866 (Chronic Myelogenous Leukemia); experiment: as above
Outline: as §1

[17] = test system: SNU-175 (Colorectal Carcinoma); experiment: as above
Outline: as §1
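Wherever Bliss excess, mean over the matrix is given: after 72 h of two-drug dosing.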

Compound | Bliss excess (HuO-3N1 (Osteosarcoma)) | Bliss excess [1] | combination Emax (786-0 (Kidney Carcinoma)) | combination Emax [2] | combination Emax (CHL-1 (Melanoma)) | combination Emax [3] | combination Emax [4] | combination Emax [5] | combination Emax [6] | combination Emax [7] | combination Emax [8] | combination Emax [9] | combination Emax [10] | combination Emax [11] | combination Emax [12] | combination Emax [13] | combination Emax [14] | combination Emax [15] | combination Emax [16] | combination Emax [17]
CCN(CCO)CCCOc1ccc2c(Nc3cc(CC(=O)Nc4cccc(F)c4)[nH]n3)ncnc2c1 [AZD2811] + C[C@@H]1COCCN1C2=NC(=NC(=C2)C3(CC3)[S@](=N)(=O)C)C4=C5C=CNC5=NC=C4 [AZD6738] (first compound max 1 µM, 7x7, partner max 10 µM) | -0.0218 | 0.0425 | 0.714 | 0.984 | 0.805 | 0.748 | 0.841 | 0.644 | 0.6 | 0.858 | 1 | 0.206 | 0.6 | 0.788 | 0.879 | 0.983 | 0.37 | 0.773 | 0.955 | 0.578
CCN(CCO)CCCOc1ccc2c(Nc3cc(CC(=O)Nc4cccc(F)c4)[nH]n3)ncnc2c1 [AZD2811] + O=C(c1cc(Cc2n[nH]c(=O)c3ccccc23)ccc1F)N1CCN(C(=O)C2CC2)CC1 [Olaparib] (first compound max 1 µM, 7x7, partner max 10 µM) | -0.0185 | 0.0342 | 0.149 | 0.848 | 0.24 | 0.291 | 0.82 | 0.282 | 0.377 | 0.248 | 0.924 | 0.158 | 0.442 | 0.576 | 0.723 | 0.966 | 0.223 | 0.73 | 0.69 | 0.611
CN(CCO)CC[C@H](CSc1ccccc1)Nc1ccc(S(=O)(=O)NC(=O)c2ccc(N3CCC([C@@H](O)c4ccccc4-c4ccc(Cl)cc4)CC3)cc2)cc1S(=O)(=O)C(F)(F)F [AZD4320] + C1CN(CCC1(C(=O)N[C@@H](CCO)C2=CC=C(C=C2)Cl)N)C3=NC=NC4=C3C=CN4 [Capivasertib] (first compound max 1 µM, 7x7, partner max 3 µM) | -0.0109 | 0.0099 | 0.402 | 1 | 0.0871 | 0.447 | 0.363 | 0.191 | 0.343 | 0.207 | 1 | 0.389 | 0.278 | 0.303 | 1 | 1 | 0.413 | 0.533 | 0.641 | 0.501
CN(CCO)CC[C@H](CSc1ccccc1)Nc1ccc(S(=O)(=O)NC(=O)c2ccc(N3CCC([C@@H](O)c4ccccc4-c4ccc(Cl)cc4)CC3)cc2)cc1S(=O)(=O)C(F)(F)F [AZD4320] + C=CCn1c(=O)c2cnc(Nc3ccc(N4CCN(C)CC4)cc3)nc2n1-c1cccc(C(C)(C)O)n1 [AZD1775] (first compound max 1 µM, partner max 1 µM) | -0.0135 | 0.035 | 0.715 | 1 | 0.703 | 0.763 | 0.979 | 0.681 | 0.977 | 0.742 | 1 | 0.26 | 0.608 | 0.854 | 1 | 1 | 0.621 | 0.53 | 1 | 0.717
CN(CCO)CC[C@H](CSc1ccccc1)Nc1ccc(S(=O)(=O)NC(=O)c2ccc(N3CCC([C@@H](O)c4ccccc4-c4ccc(Cl)cc4)CC3)cc2)cc1S(=O)(=O)C(F)(F)F [AZD4320] + CCN(CCO)CCCOc1ccc2c(Nc3cc(CC(=O)Nc4cccc(F)c4)[nH]n3)ncnc2c1 [AZD2811] (first compound max 1 µM, 7x7, partner max 1 µM) | -0.0051 | 0.0403 | 0.166 | 1 | 0.73 | 0.178 | 0.94 | 0.241 | 0.699 | 0.347 | 1 | 0.188 | 0.197 | 0.43 | 1 | 1 | 0.166 | 0.92 | 0.952 | 0.996
CN(CCO)CC[C@H](CSc1ccccc1)Nc1ccc(S(=O)(=O)NC(=O)c2ccc(N3CCC([C@@H](O)c4ccccc4-c4ccc(Cl)cc4)CC3)cc2)cc1S(=O)(=O)C(F)(F)F [AZD4320] + CN(C)CCCOc1ccc(-c2ccc3ncc4c(c3c2)n(C2CCOCC2)c(=O)n4C)cn1 [AZD0156] (first compound max 1 µM, 7x7, partner max 1 µM) | -0.0021 | -0.0871 | 0.0619 | 1 | 0.113 | 0.148 | 0.541 | 0.387 | 0.386 | 0.37 | 1 | 0.321 | 0.191 | 0.229 | 1 | 1 | 0.25 | 0.124 | 0.552 | 0.467
CN(CCO)CC[C@H](CSc1ccccc1)Nc1ccc(S(=O)(=O)NC(=O)c2ccc(N3CCC([C@@H](O)c4ccccc4-c4ccc(Cl)cc4)CC3)cc2)cc1S(=O)(=O)C(F)(F)F [AZD4320] + C[C@@H]1COCCN1C2=NC(=NC(=C2)C3(CC3)[S@](=N)(=O)C)C4=C5C=CNC5=NC=C4 [AZD6738] (first compound max 1 µM, 7x7, partner max 10 µM) | 0.0154 | 0.0067 | 0.815 | 1 | 0.893 | 0.728 | 0.958 | 0.578 | 0.742 | 0.881 | 1 | 0.433 | 0.871 | 0.831 | 1 | 1 | 0.54 | 0.751 | 1 | 0.936
CN(CCO)CC[C@H](CSc1ccccc1)Nc1ccc(S(=O)(=O)NC(=O)c2ccc(N3CCC([C@@H](O)c4ccccc4-c4ccc(Cl)cc4)CC3)cc2)cc1S(=O)(=O)C(F)(F)F [AZD4320] + Cc1cc2ncnn2cc1Nc1ncc2c(n1)n(C1CCOCC1)c(=O)n2C [AZD7648] (first compound max 1 µM, 7x7, partner max 10 µM) | 0.0015 | 0.0153 | 0.138 | 1 | 0.177 | 0.197 | 0.551 | 0.334 | 0.347 | 0.342 | 1 | 0.35 | 0.298 | 0.286 | 1 | 1 | 0.361 | 0.0598 | 0.665 | 0.446
CN(CCO)CC[C@H](CSc1ccccc1)Nc1ccc(S(=O)(=O)NC(=O)c2ccc(N3CCC([C@@H](O)c4ccccc4-c4ccc(Cl)cc4)CC3)cc2)cc1S(=O)(=O)C(F)(F)F [AZD4320] + Cn1cnc2c(F)c(Nc3ccc(Br)cc3Cl)c(C(=O)NOCCO)cc21 [Selumetinib] (first compound max 1 µM, 7x7, partner max 3 µM) | -0.0194 | -0.0208 | 0.307 | 1 | 0.389 | 0.355 | 0.803 | 0.393 | 0.453 | 0.707 | 1 | 0.198 | 0.859 | 0.295 | 1 | 1 | 0.318 | 0.667 | 0.854 | 0.865
Cc1c2c(nn1C)CSCc1cc(n(C)n1)CSc1cc(c3ccccc3c1)OCCCc1c(C(=O)O)n(C)c3c-2c(Cl)ccc13 [AZD5991] + C1CN(CCC1(C(=O)N[C@@H](CCO)C2=CC=C(C=C2)Cl)N)C3=NC=NC4=C3C=CN4 [Capivasertib] (first compound max 1 µM, 7x7, partner max 3 µM) | 0.0122 | -0.0335 | 0.44 | 0.65 | 0.275 | 0.599 | 0.307 | 0.299 | 0.347 | 0.179 | 0.926 | 0.774 | 1 | 0.338 | 0.999 | 1 | 0.367 | 1 | 0.52 | 0.492
Cc1c2c(nn1C)CSCc1cc(n(C)n1)CSc1cc(c3ccccc3c1)OCCCc1c(C(=O)O)n(C)c3c-2c(Cl)ccc13 [AZD5991] + C=CCn1c(=O)c2cnc(Nc3ccc(N4CCN(C)CC4)cc3)nc2n1-c1cccc(C(C)(C)O)n1 [AZD1775] (first compound max 1 µM, partner max 1 µM) | 0.006 | -0.0519 | 0.804 | 1 | 0.745 | 0.739 | 0.775 | 0.732 | 0.891 | 0.454 | 1 | 0.595 | 0.959 | 0.79 | 0.979 | 1 | 0.618 | 1 | 0.978 | 0.868
Cc1c2c(nn1C)CSCc1cc(n(C)n1)CSc1cc(c3ccccc3c1)OCCCc1c(C(=O)O)n(C)c3c-2c(Cl)ccc13 [AZD5991] + CC1(C)CCC(CN2CCN(c3ccc(C(=O)NS(=O)(=O)c4ccc(NCC5CCOCC5)c([N+](=O)[O-])c4)c(Oc4cnc5[nH]ccc5c4)c3)CC2)=C(c2ccc(Cl)cc2)C1 [Venetoclax] (first compound max 1 µM, 7x7, partner max 1 µM) | 0.0087 | 0.0517 | 0.199 | 1 | 0.968 | 0.244 | 0.453 | 0.145 | 0.382 | 0.147 | 1 | 0.768 | 0.905 | 0.212 | 0.999 | 1 | 0.198 | 0.943 | 0.438 | 0.926
